In US20050004177A1, “Combination of an allosteric inhibitor of matrix metalloproteinase-13 and a ligand to an alpha-2-delta receptor” (WARNER-LAMBERT COMPANY LLC, priority 2003, published 2005):

- melting point: 195 to 198 °C
Compound: O=C(O)c1ccc(Cn2nnc(-c3cccc(C#CCc4ccccc4)c3)n2)cc1 [Preparation 2, 4-{5-[3-(3-Phenyl-prop-1-ynyl)-phenyl]-tetrazol-2-ylmethyl}-benzoic acid]
